Assay results published in the NIST ThermoML archive (doi:10.1016/j.tca.2007.01.009).
Numbers after ± are expanded uncertainties.

Assay: wn = mass fraction of the nth substance listed
Details: 101 kPa, Crystal, Hot wire method

[Pb] [lead] + [Cd]
thermal conductivity [W/m/K]
Details | 323.15 K | 373.15 K | 423.15 K | 473.15 K | 513.15 K
w2 = 0.033 | 38.36 ± 0.58 | 35.94 ± 0.54 | 30.79 ± 0.46 | 30.37 ± 0.46 | 27.68 ± 0.42
w2 = 0.174 | 62.77 ± 0.94 | 53.14 ± 0.8 | 44.49 ± 0.67 | 39.96 ± 0.6 | 37.25 ± 0.56
w2 = 0.9975 | 105.18 ± 1.6 | 86.06 ± 1.3 | 71.06 ± 1.1 | 69.38 ± 1 | 61.22 ± 0.92

[Zn] [zinc] + [Sn]
thermal conductivity [W/m/K]
Details | 323.15 K | 373.1 K | 423.15 K | 463.15 K
w1 = 0.01 | 78.49 ± 1.2 | 73.59 ± 1.1 | 66.89 ± 1 | 71.08 ± 1.1
w1 = 0.089 | 86.39 ± 1.3 | 81.42 ± 1.2 | 79.04 ± 1.2 | 75.42 ± 1.1
